Experimental data: patent US20120083522A1, “MODULATION OF INFLAMMATORY RESPONSES BY FACTOR XI” (Isis Pharmaceuitcals, inc., priority 2009, published 2012)

What was measured:
human Factor XI mRNA [1] = test: Dose-dependent inhibition in HepG2 cells, lipofectin (Example 4); assay type: cell-based; details: 16 hours
In short: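 HepG2 cells at 10,000 per well were lipofectin-transfected with 9.375, 18.75, 37.5 or 75 nM antisense oligonucleotide for about 16 h. Factor XI mRNA was quantified by real-time PCR (primer probe set RTS 2966) and normalised to RIBOGREEN total RNA. Values are percent inhibition versus untreated cells.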

human Factor XI mRNA [2] = test: Dose-dependent inhibition in HepG2 cells, electroporation (Example 4); assay type: cell-based; details: 16 hours
In short: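 HepG2 cells electroporated with 0.7, 2.2, 6.7 or 20 μM antisense gapmer and harvested after ~16 h. Factor XI mRNA quantified by qRT-PCR (primer probe set RTS 2966), normalised to total RNA (RIBOGREEN). Reported as percent inhibition versus untreated control cells.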

human Factor XI mRNA [3] = test: Dose-dependent inhibition in HepG2 cells, lipofectin (Example 5); assay type: cell-based; details: 16 hours
Method: (§1) Cells were plated at a density of 10,000 cells per well and transfected using lipofectin reagent with 2.34 nM, 4.69 nM, 9.375 nM, 18.75 nM, 37.5 nM, and 75 nM concentrations of antisense oligonucleotide, as specified in Table 11. After a treatment period of approximately 16 hours, RNA was isolated from the cells and human Factor XI mRNA levels were measured by quantitative real-time PCR. Human Factor XI primer probe set RTS 2966 was used to measure mRNA levels. Factor XI mRNA levels were adjusted according to total RNA content, as measured by RIBOGREEN®. Results are presented as percent inhibition of human Factor XI, relative to untreated control cells.

human Factor XI mRNA [4] = test: Dose-dependent inhibition in HepG2 cells, electroporation (Example 5); assay type: cell-based; details: approx. 16 h, relative to untreated control cells
Method: The gapmers were also transfected via electroporation and their dose dependent inhibition of human Factor XI mRNA was measured. Cells were plated at a density of 20,000 cells per well and transfected via electroporation with 625 nM, 1250 nM, 2500 nM, 5,000 nM, 10,000 nM, and 20,000 nM concentrations of antisense oligonucleotide, as specified in Table 12. After a treatment period of approximately 16 hours, RNA was isolated from the cells and human Factor XI mRNA levels were measured by quantitative real-time PCR. Human Factor XI primer probe set RTS 2966 was used to measure mRNA levels. Factor XI mRNA levels were adjusted according to total RNA content, as measured by RIBOGREEN®. Results are presented as percent inhibition of human Factor XI, relative to untreated control cells.

human Factor XI mRNA [5] = test: Dose-dependent inhibition in cyno primary hepatocytes, electroporation (Example 6); assay type: cell-based, cynomolgus monkey; details: approx. 16 h
Method: Cells were plated at a density of 35,000 cells per well and transfected via electroporation with 0.74 nM, 2.2 nM, 6.7 nM, 20 nM, 60 nM, and 180 nM concentrations of antisense oligonucleotide, as specified in Table 13. After a treatment period of approximately 16 hours, RNA was isolated from the cells and human Factor XI mRNA levels were measured by quantitative real-time PCR. Human Factor XI primer probe set RTS 2966 was used to measure mRNA levels. Factor XI mRNA levels were adjusted according to total RNA content, as measured by RIBOGREEN®. Results are presented as percent inhibition of human Factor XI, relative to untreated control cells.

human Factor XI mRNA [6] = test: Dose-dependent inhibition in HepB3 cells, lipofectin (Example 7); assay type: cell-based; details: approx. 16 h
Method: as §1, with “4,000” for “10,000”, “2.3” for “2.34”, “4.7” for “4.69”, “9.4” for “9.375”, “14.” for “11.”, “of” for “of human”

human Factor XI mRNA [7] = test: Dose-dependent inhibition in HepB3 cells, electroporation (Example 7); assay type: cell-based; details: approx. 16 h
Method: The gapmers were also transfected via electroporation and their dose dependent inhibition of human Factor XI mRNA was measured. Cells were plated at a density of 20,000 cells per well and transfected via electroporation with 41.15 nM, 123.457 nM, 370.37 nM, 1111.11 nM, 3333.33 nM, and 10,000 nM concentrations of antisense oligonucleotide, as specified in Table 15. After a treatment period of approximately 16 hours, RNA was isolated from the cells and human Factor XI mRNA levels were measured by quantitative real-time PCR. Human Factor XI primer probe set RTS 2966 was used to measure mRNA levels. Factor XI mRNA levels were adjusted according to total RNA content, as measured by RIBOGREEN®. Results are presented as percent inhibition of human Factor XI, relative to untreated control cells.

[8] = Tolerability in Sprague-Dawley rats: body and organ weight (Example 19); assay type: in vivo; details: 50 mg/kg s.c. twice per week for 6 weeks, change over weight at start of study
Description: (§2) Urine samples were taken before the start of treatment.
The body weights are presented in Table 78 and are expressed as a percent change over the weights taken at the start of the study.

[9] = Tolerability in Sprague-Dawley rats: kidney function (Example 19); assay type: in vivo; details: Sprague Dawley rats; for urine protein/creatinine ratio, After: after 50 mg/kg s.c. twice per week for 6 weeks; for urine protein/creatinine ratio, Before: before antisense oligonucleotide treatment
Description: as §2

Substance: 416826 (antisense ATGCCCTTCATGTCTAGGTC; 5-10-5 gapmer, wing sugar chemistry not given here, further chemistry not given here) [compound 416826]
- percent inhibition of Factor XI mRNA, relative to untreated control cells (human Factor XI mRNA [1]; 9.375 nM): 8%
- percent inhibition of Factor XI mRNA, relative to untreated control cells (human Factor XI mRNA [1]; 18.75 nM): 36%
- percent inhibition of Factor XI mRNA, relative to untreated control cells (human Factor XI mRNA [1]; 37.5 nM): 58%
- percent inhibition of Factor XI mRNA, relative to untreated control cells (human Factor XI mRNA [1]; 75 nM): 84%
- percent inhibition of Factor XI mRNA, relative to untreated control cells (human Factor XI mRNA [2]; 0.7 μM): 2%
- percent inhibition of Factor XI mRNA, relative to untreated control cells (human Factor XI mRNA [2]; 2.2 μM): 47%
- percent inhibition of Factor XI mRNA, relative to untreated control cells (human Factor XI mRNA [2]; 6.7 μM): 86%
- percent inhibition of Factor XI mRNA, relative to untreated control cells (human Factor XI mRNA [2]; 20 μM): 82%
- percent inhibition of human Factor XI mRNA, relative to untreated control cells (human Factor XI mRNA [3]; 2.34 nM): 15%
- percent inhibition of human Factor XI mRNA, relative to untreated control cells (human Factor XI mRNA [3]; 4.69 nM): 22%
- percent inhibition of human Factor XI mRNA, relative to untreated control cells (human Factor XI mRNA [3]; 9.375 nM): 32%
- percent inhibition of human Factor XI mRNA, relative to untreated control cells (human Factor XI mRNA [3]; 18.75 nM): 54%
- percent inhibition of human Factor XI mRNA, relative to untreated control cells (human Factor XI mRNA [3]; 37.5 nM): 76%
- percent inhibition of human Factor XI mRNA, relative to untreated control cells (human Factor XI mRNA [3]; 75 nM): 90%
- percent inhibition of human Factor XI mRNA (human Factor XI mRNA [4]; 625 nM): 67%
- percent inhibition of human Factor XI mRNA (human Factor XI mRNA [4]; 1250 nM): 82%
- percent inhibition of human Factor XI mRNA (human Factor XI mRNA [4]; 2500 nM): 89%
- percent inhibition of human Factor XI mRNA (human Factor XI mRNA [4]; 5000 nM): 92%
- percent inhibition of human Factor XI mRNA (human Factor XI mRNA [4]; 10000 nM): 95%
- percent inhibition of human Factor XI mRNA (human Factor XI mRNA [4]; 20000 nM): 97%
- percent inhibition of human Factor XI mRNA (human Factor XI mRNA [5]; 0.74 nM): 13%
- percent inhibition of human Factor XI mRNA (human Factor XI mRNA [5]; 2.2 nM): 24%
- percent inhibition of human Factor XI mRNA (human Factor XI mRNA [5]; 6.7 nM): 34%
- percent inhibition of human Factor XI mRNA (human Factor XI mRNA [5]; 20 nM): 67%
- percent inhibition of human Factor XI mRNA (human Factor XI mRNA [5]; 60 nM): 69%
- percent inhibition of human Factor XI mRNA (human Factor XI mRNA [5]; 180 nM): 71%
- percent inhibition of human Factor XI mRNA (human Factor XI mRNA [6]; 2.3 nM): 16%
- percent inhibition of human Factor XI mRNA (human Factor XI mRNA [6]; 4.7 nM): 28%
- percent inhibition of human Factor XI mRNA (human Factor XI mRNA [6]; 9.4 nM): 38%
- percent inhibition of human Factor XI mRNA (human Factor XI mRNA [6]; 18.75 nM): 55%
- percent inhibition of human Factor XI mRNA (human Factor XI mRNA [6]; 37.5 nM): 64%
- percent inhibition of human Factor XI mRNA (human Factor XI mRNA [6]; 75 nM): 66%
- percent inhibition of human Factor XI mRNA (human Factor XI mRNA [7]; 41.15 nM): 0%
- percent inhibition of human Factor XI mRNA (human Factor XI mRNA [7]; 123.457 nM): 0%
- percent inhibition of human Factor XI mRNA (human Factor XI mRNA [7]; 370.37 nM): 34%
- percent inhibition of human Factor XI mRNA (human Factor XI mRNA [7]; 1111.11 nM): 61%
- percent inhibition of human Factor XI mRNA (human Factor XI mRNA [7]; 3333.33 nM): 87%
- percent inhibition of human Factor XI mRNA (human Factor XI mRNA [7]; 10000 nM): 92%
- Percent change in Body weight [8]: −40%
- urine protein/creatinine ratio, After [9]: 11.4
- urine protein/creatinine ratio, Before [9]: 1.0

Substance: 416892 (antisense GCCCTTCATGTCTAGGTCCA; 3-14-3 chimeric gapmer, wing sugar chemistry not given here, further chemistry not given here) [compound 416892]
- percent inhibition of Factor XI mRNA, relative to untreated control cells (human Factor XI mRNA [1]; 9.375 nM): 16%
- percent inhibition of Factor XI mRNA, relative to untreated control cells (human Factor XI mRNA [1]; 18.75 nM): 50%
- percent inhibition of Factor XI mRNA, relative to untreated control cells (human Factor XI mRNA [1]; 37.5 nM): 70%
- percent inhibition of Factor XI mRNA, relative to untreated control cells (human Factor XI mRNA [1]; 75 nM): 85%
- percent inhibition of Factor XI mRNA, relative to untreated control cells (human Factor XI mRNA [2]; 0.7 μM): 14%
- percent inhibition of Factor XI mRNA, relative to untreated control cells (human Factor XI mRNA [2]; 2.2 μM): 52%
- percent inhibition of Factor XI mRNA, relative to untreated control cells (human Factor XI mRNA [2]; 6.7 μM): 82%
- percent inhibition of Factor XI mRNA, relative to untreated control cells (human Factor XI mRNA [2]; 20 μM): 92%
- percent inhibition of human Factor XI mRNA, relative to untreated control cells (human Factor XI mRNA [3]; 2.34 nM): 14%
- percent inhibition of human Factor XI mRNA, relative to untreated control cells (human Factor XI mRNA [3]; 4.69 nM): 34%
- percent inhibition of human Factor XI mRNA, relative to untreated control cells (human Factor XI mRNA [3]; 9.375 nM): 49%
- percent inhibition of human Factor XI mRNA, relative to untreated control cells (human Factor XI mRNA [3]; 18.75 nM): 70%
- percent inhibition of human Factor XI mRNA, relative to untreated control cells (human Factor XI mRNA [3]; 37.5 nM): 84%
- percent inhibition of human Factor XI mRNA, relative to untreated control cells (human Factor XI mRNA [3]; 75 nM): 93%
- percent inhibition of human Factor XI mRNA (human Factor XI mRNA [4]; 625 nM): 66%
- percent inhibition of human Factor XI mRNA (human Factor XI mRNA [4]; 1250 nM): 86%
- percent inhibition of human Factor XI mRNA (human Factor XI mRNA [4]; 2500 nM): 96%
- percent inhibition of human Factor XI mRNA (human Factor XI mRNA [4]; 5000 nM): 97%
- percent inhibition of human Factor XI mRNA (human Factor XI mRNA [4]; 10000 nM): 100%
- percent inhibition of human Factor XI mRNA (human Factor XI mRNA [4]; 20000 nM): 100%
- percent inhibition of human Factor XI mRNA (human Factor XI mRNA [5]; 0.74 nM): 20%
- percent inhibition of human Factor XI mRNA (human Factor XI mRNA [5]; 2.2 nM): 20%
- percent inhibition of human Factor XI mRNA (human Factor XI mRNA [5]; 6.7 nM): 43%
- percent inhibition of human Factor XI mRNA (human Factor XI mRNA [5]; 20 nM): 62%
- percent inhibition of human Factor XI mRNA (human Factor XI mRNA [5]; 60 nM): 88%
- percent inhibition of human Factor XI mRNA (human Factor XI mRNA [5]; 180 nM): 92%
- percent inhibition of human Factor XI mRNA (human Factor XI mRNA [6]; 2.3 nM): 28%
- percent inhibition of human Factor XI mRNA (human Factor XI mRNA [6]; 4.7 nM): 34%
- percent inhibition of human Factor XI mRNA (human Factor XI mRNA [6]; 9.4 nM): 50%
- percent inhibition of human Factor XI mRNA (human Factor XI mRNA [6]; 18.75 nM): 68%
- percent inhibition of human Factor XI mRNA (human Factor XI mRNA [6]; 37.5 nM): 82%
- percent inhibition of human Factor XI mRNA (human Factor XI mRNA [6]; 75 nM): 72%
- percent inhibition of human Factor XI mRNA (human Factor XI mRNA [7]; 41.15 nM): 9%
- percent inhibition of human Factor XI mRNA (human Factor XI mRNA [7]; 123.457 nM): 12%
- percent inhibition of human Factor XI mRNA (human Factor XI mRNA [7]; 370.37 nM): 28%
- percent inhibition of human Factor XI mRNA (human Factor XI mRNA [7]; 1111.11 nM): 65%
- percent inhibition of human Factor XI mRNA (human Factor XI mRNA [7]; 3333.33 nM): 89%
- percent inhibition of human Factor XI mRNA (human Factor XI mRNA [7]; 10000 nM): 98%
- Percent change in Body weight [8]: −39%
- urine protein/creatinine ratio, After [9]: 21.3
- urine protein/creatinine ratio, Before [9]: 0.8
